The supplement of paper PMC4932681

Experiments:
BT-474 Tam1 [1] = assay: drug sensitivity score (DSS) (DSS (dimensionless)); higher = more sensitive; extreme values may be limits of the assay; conditions: 4-OH-tamoxifen in medium 1 µM; 72 h
Description: (§1)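 FIMM FO2B library drugs were tested at 5 concentrations (10,000-fold range) for 72 h, with CellTiter-Glo viability normalised to DMSO and benzethonium chloride controls. The Drug Sensitivity Score (DSS) is computed from the fitted logistic dose-response curve (area-based; 0 = inactive). Resistant lines and the 'in 1µM tamoxifen' arms were tested in 1 µM 4-OH-tamoxifen.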

ZR-75-1 Tam1 [2] = assay: as above; conditions: 4-OH-tamoxifen in medium 1 µM; 72 h
Description: as §1

T-47D Tam1 [3] = assay: as above; conditions: 4-OH-tamoxifen in medium 1 µM; 72 h
Description: as §1

BT-474 Tam2 [4] = assay: as above; conditions: 4-OH-tamoxifen in medium 1 µM; 72 h
Description: as §1

T-47D Tam2 = assay: as above; conditions: 4-OH-tamoxifen in medium 1 µM; 72 h
Description: as §1

BT-474 [5] = assay: as above; conditions: 72 h
Description: as §1

ZR-75-1 [6] = assay: as above; conditions: 72 h
Description: as §1

ZR-75-1 Tam2 [7] = assay: as above; conditions: 4-OH-tamoxifen in medium 1 µM; 72 h
Description: as §1

T-47D [8] = assay: as above; conditions: 72 h
Description: as §1

MCF-7 Tam1 = assay: as above; conditions: 4-OH-tamoxifen in medium 1 µM; 72 h
Description: as §1

MCF-7 [9] = assay: as above; conditions: 72 h
Description: as §1

BT-474 Tam1 [10] = assay: relative IC50 (midpoint of fitted logistic curve, plateau may be below 50% inhibition; CellTiter-Glo viability); higher = less potent; conditions: 4-OH-tamoxifen in medium 1 µM; 72 h
Description: (§2)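 FIMM FO2B library drugs were plated at 5 concentrations spanning a 10,000-fold range in 384-well plates. Cells were incubated for 72 h at 37 °C and viability was read by CellTiter-Glo, normalised to DMSO (0% inhibition) and 100 µM benzethonium chloride (100% inhibition). IC50 values come from logistic dose-response fits (Breeze pipeline). Tamoxifen-resistant lines and the 'in 1µM tamoxifen' parental arms were tested in medium with 1 µM 4-OH-tamoxifen.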

ZR-75-1 Tam1 [11] = assay: as above; conditions: 4-OH-tamoxifen in medium 1 µM; 72 h
Description: as §2

BT-474 Tam2 [12] = assay: as above; conditions: 4-OH-tamoxifen in medium 1 µM; 72 h
Description: as §2

BT-474 [13] = assay: as above; conditions: 72 h
Description: as §2

ZR-75-1 [14] = assay: as above; conditions: 72 h
Description: as §2

ZR-75-1 Tam2 [15] = assay: as above; conditions: 4-OH-tamoxifen in medium 1 µM; 72 h
Description: as §2

T-47D [16] = assay: as above; conditions: 72 h
Description: as §2

MCF-7 [17] = assay: as above; conditions: 72 h
Description: as §2

T-47D Tam1 [18] = assay: as above; conditions: 4-OH-tamoxifen in medium 1 µM; 72 h
Description: as §2

| Structure (SMILES) | relative IC50 (BT-474 Tam1 [10]) | relative IC50 (BT-474 Tam2 [12]) | relative IC50 (BT-474 [13]; 4-OH-tamoxifen in medium 0 µM) | relative IC50 (T-47D [16]; 4-OH-tamoxifen in medium 0 µM) | relative IC50 (T-47D [16]; 4-OH-tamoxifen in medium 1 µM) | relative IC50 (MCF-7 [17]; 4-OH-tamoxifen in medium 0 µM) | relative IC50 (T-47D Tam1 [18]) | relative IC50 (BT-474 [13]; 4-OH-tamoxifen in medium 1 µM) | relative IC50 (MCF-7 [17]; 4-OH-tamoxifen in medium 1 µM) | drug sensitivity score (BT-474 Tam1 [1]) | drug sensitivity score (ZR-75-1 Tam1 [2]) | drug sensitivity score (T-47D Tam1 [3]) | drug sensitivity score (BT-474 Tam2 [4]) | drug sensitivity score (T-47D Tam2) | drug sensitivity score (BT-474 [5]; 4-OH-tamoxifen in medium 0 µM) | drug sensitivity score (BT-474 [5]; 4-OH-tamoxifen in medium 1 µM) | drug sensitivity score (ZR-75-1 [6]; 4-OH-tamoxifen in medium 0 µM) | drug sensitivity score (ZR-75-1 [6]; 4-OH-tamoxifen in medium 1 µM) | drug sensitivity score (ZR-75-1 Tam2 [7]) | drug sensitivity score (T-47D [8]; 4-OH-tamoxifen in medium 0 µM) | drug sensitivity score (T-47D [8]; 4-OH-tamoxifen in medium 1 µM) | drug sensitivity score (MCF-7 Tam1) | drug sensitivity score (MCF-7 [9]; 4-OH-tamoxifen in medium 0 µM) | drug sensitivity score (MCF-7 [9]; 4-OH-tamoxifen in medium 1 µM) | relative IC50 (ZR-75-1 Tam1 [11]) | relative IC50 (ZR-75-1 [14]; 4-OH-tamoxifen in medium 0 µM) | relative IC50 (ZR-75-1 [14]; 4-OH-tamoxifen in medium 1 µM) | relative IC50 (ZR-75-1 Tam2 [15]) |
| --- | --- | --- | --- | --- | --- | --- | --- | --- | --- | --- | --- | --- | --- | --- | --- | --- | --- | --- | --- | --- | --- | --- | --- | --- | --- | --- | --- | --- |
| Cn1cc(C2=Nc3cc(NC(=O)C(N)C4CCCCC4)cc4c3C2=CNNC4=O)cn1 (configuration not stated) | > 10000 nM | > 10000 nM | > 10000 nM | > 10000 nM | – | 1890 nM | 1410 nM | > 10000 nM | – | 0 | 0 | 4.76 | 0 | 2.29 | 0 | 0 | 0 | 0 | 0 | 0 | 0.174 | 0 | 2.19 | 0.0458 | > 10000 nM | > 10000 nM | > 10000 nM | > 10000 nM |
| CO[C@H]1C[C@@H]2CC[C@@H](C)[C@@](O)(O2)C(=O)C(=O)N2CCCC[C@H]2C(=O)O[C@H]([C@H](C)C[C@@H]2CC[C@@H](OCCO)[C@H](OC)C2)CC(=O)[C@H](C)/C=C(\C)[C@@H](O)[C@@H](OC)C(=O)[C@H](C)C[C@H](C)/C=C/C=C/C=C/1C [Everolimus] | – | – | – | – | – | 1.04 nM | – | – | 0.952 nM | 1.16 | 4.45 | 4.62 | 2.18 | 3.34 | 7.06 | 0.135 | 8.05 | 4.22 | 9.02 | 5.82 | 2.41 | 0.336 | 11.6 | 8.24 | 3.52 nM | 1.27 nM | 3.47 nM | 1.23 nM |
| Cn1cnc2c(F)c(Nc3ccc(Br)cc3F)c(C(=O)NOCCO)cc21 [MEK-162 (ARRY-162)] | > 1000 nM | > 1000 nM | > 1000 nM | > 1000 nM | > 1000 nM | – | – | – | – | 0 | 0 | 3.1 | 0 | 0.511 | 0 | 1.07 | 0 | 0 | 0 | 0 | 0 | 0 | 0.0194 | 1.02 | > 1000 nM | > 1000 nM | > 1000 nM | > 1000 nM |

Now from value to compound, other results behind:

| relative IC50 (BT-474 Tam1 [10]) | relative IC50 (BT-474 Tam2 [12]) | relative IC50 (BT-474 [13]; 4-OH-tamoxifen in medium 0 µM) | relative IC50 (T-47D [16]; 4-OH-tamoxifen in medium 0 µM) | relative IC50 (T-47D [16]; 4-OH-tamoxifen in medium 1 µM) | relative IC50 (MCF-7 [17]; 4-OH-tamoxifen in medium 0 µM) | relative IC50 (T-47D Tam1 [18]) | relative IC50 (BT-474 [13]; 4-OH-tamoxifen in medium 1 µM) | relative IC50 (MCF-7 [17]; 4-OH-tamoxifen in medium 1 µM) | Structure (SMILES) | drug sensitivity score (BT-474 Tam1 [1]) | drug sensitivity score (ZR-75-1 Tam1 [2]) | drug sensitivity score (T-47D Tam1 [3]) | drug sensitivity score (BT-474 Tam2 [4]) | drug sensitivity score (T-47D Tam2) | drug sensitivity score (BT-474 [5]; 4-OH-tamoxifen in medium 0 µM) | drug sensitivity score (BT-474 [5]; 4-OH-tamoxifen in medium 1 µM) | drug sensitivity score (ZR-75-1 [6]; 4-OH-tamoxifen in medium 0 µM) | drug sensitivity score (ZR-75-1 [6]; 4-OH-tamoxifen in medium 1 µM) | drug sensitivity score (ZR-75-1 Tam2 [7]) | drug sensitivity score (T-47D [8]; 4-OH-tamoxifen in medium 0 µM) | drug sensitivity score (T-47D [8]; 4-OH-tamoxifen in medium 1 µM) | drug sensitivity score (MCF-7 Tam1) | drug sensitivity score (MCF-7 [9]; 4-OH-tamoxifen in medium 0 µM) | drug sensitivity score (MCF-7 [9]; 4-OH-tamoxifen in medium 1 µM) | relative IC50 (ZR-75-1 Tam1 [11]) | relative IC50 (ZR-75-1 [14]; 4-OH-tamoxifen in medium 0 µM) | relative IC50 (ZR-75-1 [14]; 4-OH-tamoxifen in medium 1 µM) | relative IC50 (ZR-75-1 Tam2 [15]) |
| --- | --- | --- | --- | --- | --- | --- | --- | --- | --- | --- | --- | --- | --- | --- | --- | --- | --- | --- | --- | --- | --- | --- | --- | --- | --- | --- | --- | --- |
| > 250 nM | > 250 nM | > 250 nM | > 250 nM | > 250 nM | > 250 nM | – | – | – | CC(=O)Nc1cccc(-n2c(=O)n(C3CC3)c(=O)c3c(Nc4ccc(I)cc4F)n(C)c(=O)c(C)c32)c1 | 0 | 0 | 2.19 | 0 | 2.69 | 0 | 0.246 | 0 | 0 | 0 | 0 | 0.259 | 0.101 | 0 | 3.01 | > 250 nM | > 250 nM | > 250 nM | > 250 nM |
| 3660 nM | – | > 10000 nM | – | – | – | > 10000 nM | 1590 nM | – | COc1cc(OC2CCN(C)CC2)ccc1Nc1ncc2c(n1)n(C1CCCC1)c(=O)n2C [AZ 3146] | 3.57 | 0.233 | 0 | 0.781 | 0.886 | 0 | 7.15 | 0.724 | 0.0431 | 0.671 | 1.1 | 0.111 | 0.007 | 0.951 | 0.135 | – | – | – | – |
| 3730 nM | 2810 nM | 3440 nM | 3890 nM | 3990 nM | 2990 nM | 1820 nM | 3390 nM | 3280 nM | Nc1ccccc1NC(=O)c1ccc(CNC(=O)OCc2cccnc2)cc1 [Entinostat] | 3.73 | 1.06 | 5.11 | 3.18 | 0.0349 | 3.08 | 4.39 | 1.19 | 0 | 0.992 | 2.94 | 1.33 | 0 | 3.59 | 1.94 | – | 3960 nM | – | – |
| – | – | – | – | > 10000 nM | – | > 10000 nM | 3610 nM | – | Cc1c(C(=O)Nc2ccc(N3C[C@@H](C)O[C@@H](C)C3)nc2)cccc1-c1ccc(OC(F)(F)F)cc1 [Erismodegib (NVP-LDE225)] | 0.226 | 0.271 | 0 | 1.6 | 1.05 | 0.627 | 1.78 | 0 | 0.747 | 0 | 0.587 | 0 | 0.695 | 0.927 | 0.267 | – | > 10000 nM | – | > 10000 nM |
| – | – | – | – | 1810 nM | – | 1490 nM | 305 nM | – | CO[C@@H]1[C@H](N(C)C(=O)c2ccccc2)C[C@H]2O[C@]1(C)n1c3ccccc3c3c4c(c5c6ccccc6n2c5c31)C(=O)NC4 [Midostaurin (PKC412)] | 0.189 | 0 | 3.03 | 1.88 | 1.85 | 3.45 | 7.09 | 0 | 0 | 0 | 1.37 | 3.14 | 1.28 | 0.329 | 0.519 | > 10000 nM | > 10000 nM | > 10000 nM | > 10000 nM |
